Data: patent US12180139B2, “Method for preparing aminoalkanoic acid derivative containing biphenyl group” (AMTIXBIO CO., LTD., priority 2019, dated 2024)

What was measured:
A. fumigatus [1] = test system: A. fumigatus
Description: (§1) Fungal cells were spread on YPD solid media (Sigma-Aldrich) and then aliquoted into the wells of the 96-well plates (2.5×10^3 microconidia/ ? for T. rubrum and T. mentagrophytes species or was 2.5×10^3 cfu/ ? for Candida albicans, Candida glabrata and Cryptococcus neoformans species, 195 ? /well). […] The compound-treated fungal cells were incubated in a 35° C. incubator for 48 hours (Candida species) and for 72 hours (C. neoformans and Trichophyton species), respectively.

[2] = test system: C. albicans 12-99 (Mutant); conditions: 35° C., 48 hours
Description: as §1

[3] = test system: C. albicans ATCC90028 (WT); conditions: 35° C., 48 hours; n = 30
Description: as §1

C. glabrata [4] = conditions: 35° C., 48 hours; n = 30
Description: as §1

C. neoformans [5] = conditions: 35° C., 72 hours; n = 10
Description: as §1

C. tropicalis = conditions: 35° C., 48 hours
Description: as §1

[6] = test system: T. mentagrophytes (KCCM60449); conditions: 35° C., 72 hours
Description: as §1

T. rubrum (KCCM60443) = conditions: 35° C., 72 hours
Description: as §1

T. rubrum (KCCM60450) = conditions: 35° C., 72 hours
Description: as §1

B. cereus (+) = assay: Antibacterial MIC test (CLSI); format: cell-based; conditions: MHB liquid medium, 37° C., 24 hours
Description: (§2) The MIC test was conducted in accordance CLSI guidelines. […] As a positive control, Nofloxacin and Vancomycin were used.

B. coagulans (+) = assay: Antibacterial MIC test (CLSI); format: cell-based; conditions: MHB liquid medium, 37° C., 24 hours
Description: as §2

B. subtilis (+) = assay: Antibacterial MIC test (CLSI); format: cell-based; conditions: MHB liquid medium, 37° C., 24 hours
Description: as §2

E. coli (−) = assay: Antibacterial MIC test (CLSI); format: cell-based; conditions: MHB liquid medium, 37° C., 24 hours
Description: as §2

L. monocytogenes (+) = assay: Antibacterial MIC test (CLSI); format: cell-based; conditions: MHB liquid medium, 37° C., 24 hours
Description: as §2

M. luteus (+) = assay: Antibacterial MIC test (CLSI); format: cell-based; conditions: MHB liquid medium, 37° C., 24 hours
Description: as §2

P. acnes (+) = assay: Antibacterial MIC test (CLSI); format: cell-based; conditions: MHB liquid medium, 37° C., 24 hours
Description: as §2

S. aureus enterica (−) = assay: Antibacterial MIC test (CLSI); format: cell-based; conditions: MHB liquid medium, 37° C., 24 hours
Description: as §2

S. aureus (+) = conditions: MHB liquid medium, 37° C., 24 hours
S. epidermidis (+) = conditions: MHB liquid medium, 37° C., 24 hours
MRSA = assay: Antibacterial MIC test (CLSI); format: cell-based, Methicillin-resistant Staphylococcus aureus; conditions: MHB liquid medium, 37° C., 24 hours
Description: as §2

C. neoformans [7] = conditions: RPMI1640 broth, 35° C., 72 hours, visual reading; expressed as a range value
C. albicans = conditions: RPMI1640 broth, 35° C., 48 hours, visual reading; expressed as a range value
C. glabrata [8] = conditions: RPMI1640 broth, 35° C., 48 hours, visual reading; expressed as a range value
A. fumigatus [9] = conditions: visual reading; expressed as a range value
Description: An in vitro antifungal susceptibility test was performed in accordance with the US Clinical and Laboratory Standards Institute (CLSI) guidelines to measure the degree of antifungal activity of the compounds synthesized in the Preparation Examples against opportunistic pathogenic fungi. […] The MIC value (μg/ ? ) is expressed as a range value. Specifically, Candida species and Cryptococcus neoformans were incubated in a Sabouraud dextrose agar (SDA) (Sigma-Aldrich) solid medium for 24 and 48 hours, respectively to obtain single colonies. The obtained single colonies were suspended in 0.85% physiological saline to prepare fungal cell suspension (1 to 5×10^6 cells/ ? ). Fungal cells 2000-fold diluted in RPMI1640 broth (Sigma-Aldrich) were seeded on 96-well plates (5×10^2 to 2.5×10^3 cells/ ? , 195 ? /well). Serial two-fold dilutions (128, 64, 32, 16, 8, 4, 2, 1, and 0.5 μg/ ? ) of compounds were prepared by diluting the compounds synthesized according to the above preparation examples. Then, 5 ? from each dilution was added to the well of the 96-well plate containing fungal cell suspension to give a final suspension of 200 ? per well. […] As a positive control, amphotericin B (AMB), which is highly toxic to the human body but is known as a representative antifungal agent, was used.

Candida albicans = conditions: 50 or 100 μg/mL for 30 minutes; versus Efinaconazole, Tavaborole, Terbinafine, Ciclopirox
Description: To evaluate fast-acting effects of Compound 74, the growth of Candida albicans was studied by treating Candida albicans with Compound 74 or commercially available drug of Efinaconazole, Tavaborole, Terbinafine, or Ciclopirox at the same concentration for the same period of time. Specifically, Candida albicans were prepared at a concentration of 2.5×10^3 cfu/ ? and aliquoted at 195 ? /well into 96-well plates. Subsequently, Candida albicans cells in 96-well plate were treated with Compound 74 or each of the commercially available comparative drugs (50 μg/ ? or 100 μg/ ? ) for 30 minutes, respectively. Next, Compound 74 treated fungal cells were seeded on YPD media (Sigma-Aldrich), and the number of single colonies grown was counted.

T. rubrum = conditions: 0.5- to 16-fold MIC, 0 to 120 hours; versus Efinaconazole, Amorolfine, Terbinafine, Ciclopirox, Amphotericin B
Description: Specifically, T. rubrum cells (6×10^3 cfu/ ? ) were prepared and aliquoted at 195 ? /well into 96-well plates.

Candida albicans biofilm = conditions: 4, 8, 16 and 32 μg/mL, 24 hours after treatment; versus Caspofungin, Amphotericin B, Efinaconazole

Structure (SMILES): CCCC(N)C(=O)NCCc1ccc(-c2ccc(Cl)c(Cl)c2)cc1.Cl (racemic) [Compound 74, (R)/(S)-2-amino-N-(2-(3′,4′-dichloro-[1,1′-biphenyl]-4-yl)ethyl)pentanamide hydrochloride]
- MIC A. fumigatus (A. fumigatus [1]): 2~8 μg/mL
- MIC C. albicans 12-99 (Mutant) [2]: 2~8 μg/mL
- MIC C. albicans ATCC90028 (WT) [3]: 2~4 μg/mL
- MIC C. glabrata (C. glabrata [4]): 2~4 μg/mL
- MIC C. neoformans (C. neoformans [5]): 2~4 μg/mL
- MIC C. tropicalis (C. tropicalis): 2~4 μg/mL
- MIC T. mentagrophytes (KCCM60449) [6]: 2~8 μg/mL
- MIC T. rubrum (KCCM60443) (T. rubrum (KCCM60443)): 1~4 μg/mL
- MIC T. rubrum (KCCM60450) (T. rubrum (KCCM60450)): 2~4 μg/mL
- MIC B. cereus (+) (B. cereus (+)): 16 mg/L
- MIC B. coagulans (+) (B. coagulans (+)): 2 mg/L
- MIC B. subtilis (+) (B. subtilis (+)): 8 mg/L
- MIC E. coli (−) (E. coli (−)): 32 mg/L
- MIC L. monocytogenes (+) (L. monocytogenes (+)): 8 mg/L
- MIC M. luteus (+) (M. luteus (+)): 8 mg/L
- MIC P. acnes (+) (P. acnes (+)): 8 mg/L
- MIC S. aureus enterica (−) (S. aureus enterica (−)): >32 mg/L
- MIC S. aureus (+) (S. aureus (+)): 8 mg/L
- MIC S. epidermidis (+) (S. epidermidis (+)): 8 mg/L
- MIC MRSA (MRSA): 8 mg/L
- MIC (μg/mL) C. neoformans (C. neoformans [7]): 0.5~4 μg/mL
- MIC (μg/mL) C. albicans (C. albicans): 0.5~4 μg/mL
- MIC (μg/mL) C. glabrata (C. glabrata [8]): 0.5~4 μg/mL
- MIC (μg/mL) A. fumigatus (A. fumigatus [9]): 0.5~4 μg/mL
- fast-acting effects (number of single colonies grown, FIG. 1) (Candida albicans): excellent fast-acting effects
- fungicidal effects (number of single colonies grown, FIG. 2) (T. rubrum): exhibited fungicidal effects at the MIC concentration
- biofilm disruption (growth of Candida albicans, FIG. 3) (Candida albicans biofilm): remarkably excellent growth inhibitory effects on Candida albicans through biofilm disruption
